This note sets out measurements from US7479377B2, “Genetic construct intracellular monitoring system” (DiscoveRx Corporation, priority 2001, dated 2009).

The subject of one assay is PL-PPARγ1. Kind of assay: Proteosomal degradation of transiently expressed PL-PPAR (ED-EA complementation). The note with it: for Amount of PL-PPARγ1: MG132 20 μM. The assay is classed as cell-based, human. An excerpt:
pcDNA3.1-PL-PPAR construct was obtained in the two rounds of the cloning procedure. In the first round, the ED (55-mer) sequence was inserted into NheI and KpnI sites of the pcDNA3.1/zeo vector (Invitrogen). PPARg1 gene was obtained by PCR amplification of the human placenta cDNA library and in the second round of cloning was inserted into KpnI and NotI sites of the vector.
Proteosomal degradation of transiently expressed PL-PPAR protein was detected in NIH3T3, ECV304 and HeLa cells. Cells were transfected with pcDNA3.1-PL-PPAR and 24 hours after transfection medium was removed and cells were treated either with the vehicle (DMSO) or MG132 (proteosome inhibitor). Transfections were carried out in 6-well plates as described above. Cells were washed with PBS buffer, lysed in 480 uL of lysis buffer containing CHAPS (a mild detergent) and tested for ED-EA complementation in triplicates. Thirty microliters of the cell lysates were placed in the wells of 384-well plates. After that, 10 uL of EA solution were added and reaction of complementation was carried out for one hour at room temperature. Fifteen microliters of chemiluminescent substrate (0.4 mM Galacton-Star (Applied Biosystems, Bedford, Mass.) and 2 mg/ml Emerald II substrate (Applied Biosystems, Bedford, Mass.)) were added to the wells and the chemiluminescent signals were read using Chemiluminescent reader (Packard LumiCount, Packard Biosystems) (FIGS. 10A, 10B and 10C).
PL-PPAR expression levels were tested in the presence of increasing concentrations of MG132 (FIG. 11). The experiment was done as described above, except that indicated concentrations of MG132 were employed.

For assay [1], the system named is Hela cells stably expressing IkB-PL. Nature of the assay: Cell Titer-Glo cell viability assay of Hela-IkB cells with EGF. The assay is classed as cell-based. The note with it: 0.5% FBS, serial dosage of rhEGF, 72 hours, FIG. 17. How it is done: Hela cells stably expressing IkB-PL were used. To confirm the cells response to EGF, the cell viability assay was performed. Hela-IkB cells were seeded in DMEM with 0.5% FBS in 96 well plate with a density of 5000 cells per well, exposing to a serial dosage of rhEGF. 72 hours later, cell viability assay was performed using the Cell Titer-Glo luminescence Cell Viability assay kit (Promega). […] (FIG. 17).

A further assay concerns the target T1, endogenous IL-1 receptor (Homo sapiens, UniProt P14778).
T1 construct: endogenous in cells; host or cells: HeLa cells transiently transfected with pCMV-IkB-ED or pCMV-IkB M-ED as reporter
T1 sequence (P14778 18-569): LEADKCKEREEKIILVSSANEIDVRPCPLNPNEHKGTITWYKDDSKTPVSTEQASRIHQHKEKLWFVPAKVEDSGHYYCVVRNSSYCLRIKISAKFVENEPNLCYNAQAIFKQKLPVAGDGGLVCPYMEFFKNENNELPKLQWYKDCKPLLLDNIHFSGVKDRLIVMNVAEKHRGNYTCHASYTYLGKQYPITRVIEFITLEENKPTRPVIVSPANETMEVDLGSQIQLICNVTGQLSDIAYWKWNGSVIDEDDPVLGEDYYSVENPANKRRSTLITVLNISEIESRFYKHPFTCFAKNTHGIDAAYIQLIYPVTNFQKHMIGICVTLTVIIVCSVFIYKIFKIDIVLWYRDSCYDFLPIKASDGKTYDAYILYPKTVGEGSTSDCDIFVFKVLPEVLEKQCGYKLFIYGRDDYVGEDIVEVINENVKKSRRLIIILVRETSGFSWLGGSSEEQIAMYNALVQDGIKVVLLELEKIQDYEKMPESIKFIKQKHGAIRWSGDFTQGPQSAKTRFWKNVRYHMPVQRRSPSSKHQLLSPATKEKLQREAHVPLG
T1 sequence (Q9NPH3 21-570 partner): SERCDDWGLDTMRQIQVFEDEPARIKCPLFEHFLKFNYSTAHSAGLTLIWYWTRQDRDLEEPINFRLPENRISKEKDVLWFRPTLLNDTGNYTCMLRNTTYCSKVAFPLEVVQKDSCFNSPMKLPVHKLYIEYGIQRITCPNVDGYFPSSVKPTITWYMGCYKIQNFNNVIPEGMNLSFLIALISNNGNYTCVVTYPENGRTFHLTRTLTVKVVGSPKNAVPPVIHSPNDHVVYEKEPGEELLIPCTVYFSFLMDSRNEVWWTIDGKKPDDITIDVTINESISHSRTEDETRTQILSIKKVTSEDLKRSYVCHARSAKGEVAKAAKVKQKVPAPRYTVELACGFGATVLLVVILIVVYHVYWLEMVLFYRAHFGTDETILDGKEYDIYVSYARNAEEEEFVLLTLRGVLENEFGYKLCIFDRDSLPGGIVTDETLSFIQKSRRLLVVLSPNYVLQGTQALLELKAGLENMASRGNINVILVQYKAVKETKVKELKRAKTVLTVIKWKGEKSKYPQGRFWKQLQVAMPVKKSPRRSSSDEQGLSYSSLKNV
Kind of assay: IL-1-induced IκB-ED degradation in HeLa cells. The note with it: IL-1 at various concentrations for 30 min. Format: cell-based. How it is done:
(§1) HeLa cells were seeded into 24 well plate 24 hr before transfection. 0.25 μg DNA was transfected into each well using Fugene6 (Roche) following manufacture's protocol. 24 hr after transfection, cells were subjected to treatment of TNFα (Sigma) at various concentrations for 30 min. Then the culture medium was removed, and cells were lysed in 90 μl of cell lysis buffer. […] Assay was performed in three replicates. The plate was incubated at room temperature for 30 min before addition of 15 μl chemiluminescence substrate. Plate was read 30 min after substrate addition. The untreated cells were normalized to 100% activity. […] In addition, the IκB-ED degradation was specifically linked to the upstream component activation. Also confirmed was that the IκB-ED degradation was dependent on IκB phosporylation at 32 and 36 residues, the same way as un-tagged IκB.
It has been reported that IL-1 activation of cells results in NF-κB pathway activation through the induced degradation of IκB. To confirm that the ED labeled IκB in cells was able to monitor IL-1 pathway activation, HeLa cells was transiently transfected with pCMV- IκB -ED or pCMV- IκB M-ED the same way as described above in 24 well plates. Cells were then treated with IL-1 (Sigma) at various concentrations for 30 min then assayed for ED activity.

For another assay, the system named is IκB-ED. Nature of the assay: TNFα-induced IκB-ED degradation in HeLa cells (ED/EA complementation, chemiluminescence). Format: cell-based. The note with it: TNFα at various concentrations for 30 min. How it is done:
For transient transfection, cells were seeded into 6 well plate one day before experiment. For each well, 3 μl of Fugene 6 (Roche, Ind.) was diluted into 100_μl of serum free medium, and then 1_μg of plasmid DNA was added. The mixture was incubated at room temperature for 15 min before addition into wells dropwise. The plate was then incubated at 37° C. till the assay.
as §1

Assay [2] has as its target T2, human chemokine CCR3 receptor (Homo sapiens, UniProt P51677).
T2 sequence (P51677 1-355): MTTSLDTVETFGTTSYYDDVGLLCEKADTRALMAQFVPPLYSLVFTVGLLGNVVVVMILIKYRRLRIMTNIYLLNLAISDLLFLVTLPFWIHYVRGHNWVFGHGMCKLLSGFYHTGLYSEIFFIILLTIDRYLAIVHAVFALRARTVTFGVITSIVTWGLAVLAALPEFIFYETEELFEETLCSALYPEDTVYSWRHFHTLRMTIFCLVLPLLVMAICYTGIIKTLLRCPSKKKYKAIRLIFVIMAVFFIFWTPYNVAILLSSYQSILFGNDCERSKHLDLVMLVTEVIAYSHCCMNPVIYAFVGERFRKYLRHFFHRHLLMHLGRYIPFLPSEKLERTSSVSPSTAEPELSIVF
Kind of assay: CCR3 activation leads to IkB-PL degradation in CHO-K1 cells. The assay is classed as cell-based. The note with it: CHO-K1 cells expressing CCR3, transfected with PCMV-IkB-PL; 30 min; FIG. 16. How it is done:
CHO-K1 cells stably expressing human chemokine CCR3 receptor was obtained from Euroscreen. […] Cells were seeded in 6-well plates one day before transfection. PCMV-IkB-PL was transiently transfected into CHO MC4 cells using Fugene6 following manufacturer's protocol. […] (FIG. 16).

Where [3] appears, read: HeLa cells transfected with pCMV-IκB M-ED.
[4] abbreviates: HeLa cells transfected with pCMV-IκB-ED.

Peptide text beside a SMILES is read from it. * marks the point of attachment. Cbz = O=C(OCc1ccccc1)*

Turning to `CC(C)C[C@@H](C=O)NC(=O)[C@H](CC(C)C)NC(=O)[C@H](CC(C)C)NC(=O)OCc1ccccc1` [MG132] (Cbz-Leu-Leu-Leu-aldehyde), the “Amount of PL-PPARγ1” value in the assay on PL-PPARγ1 (ECV304 cells, FIG. 10B) is given as “enhancement of the amount of PL-PPARγ1”; in the assay with PL-PPARγ1 (HeLa cells, FIG. 10C), “enhancement of the amount of PL-PPARγ1”; in the assay on PL-PPARγ1 (NIH3T3 cells, FIG. 10A), “enhancement of the amount of PL-PPARγ1”. For the same molecule, the “PL-PPAR expression level with increasing concentrations of MG132” value with PL-PPARγ1 (increasing concentrations of MG132, FIG. 11) is given as “Dose-Dependent Increase”.

Consider “EGF (NSDSECPLSHDGYCLHDGVCMYIEALDKYACNCVVGYIGERCQYRDLKWWELR)”, for which the Viable cell numbers entry in assay [1] is recorded as “responded to the EGF induction in a dosage dependent manner”.

Consider IL-1, for which, at endogenous IL-1 receptor (setting [3]), the “Degradation of mutant IκB M-ED” value is on record as “resistant to IL-1 induced degradation”. For the same molecule, the IκB-ED activity entry on endogenous IL-1 receptor (setting [4]) is reported as “decreased upon IL-1 treatment in a dose dependent manner”.

Regarding TNFα, the “ED activity of mutant IκB M-ED” value with IκB-ED (setting [3]) was “did not show a dose dependent decrease of ED activity”. Besides, the “ED activity of IκB-ED (degradation of wild type IκB)” value with IκB-ED (setting [4]) was “decrease the ED activity in a dose dependent manner”.

eotaxin: the “IkB-PL degradation upon CCR3 activation” value in assay [2] is “activation of the chemokine receptor CCR3 leading to IkB-PL degradation”.
